By IC50 is commonly meant the point on the concentration scale where inhibition reaches its midpoint.

Structures can show the parent of a compound that is named as a salt. Where only a bound is given, the exact number is not on record here.

For the first test, the system named is MV4-11 cells. Kind of test: Inhibition of MV4-11 cell proliferation (CellTiterGlo). The class given is cell-based. Particulars: Homo sapiens, 72 hours growth, uncertainty ±20%. As for the experimental part: To assess the cellular potency of compounds of the present invention, FLT3 specific growth inhibition was measured in the leukemic cell line MV4-11 (ATCC Number: CRL-9591). MV4-11 cells are derived from a patient with childhood acute myelomonocytic leukemia with an 11q23 translocation resulting in a MLL gene rearrangement and containing an FLT3-ITD mutation (AML subtype M4)(1,2). MV4-11 cells cannot grow and survive without active FLT3ITD.
To measure proliferation inhibition by compounds of the present invention, the luciferase based CellTiterGlo reagent (Promega), which quantifies total cell number based on total cellular ATP concentration, was used. Cells are plated at 10,000 cells per well in 100 ul of in RPMI media containing penn/strep, 10% FBS and 1 ng/ml GM-CSF or 1 ng/ml IL-3 for MV4-11 and Baf3 cells respectively.
Compound dilutions or 0.1% DMSO (vehicle control) are added to cells and the cells are allowed to grow for 72 hours at standard cell growth conditions (37° C., 5% CO2). For activity measurements in MV4-11 cells grown in 50% plasma, cells were plated at 10,000 cells per well in a 1:1 mixture of growth media and human plasma (final volume of 100 μL). To measure total cell growth an equal volume of CellTiterGlo reagent was added to each well, according to the manufacturer's instructions, and luminescence was quantified. Total cell growth was quantified as the difference in luminescent counts (relative light units, RLU) of cell number at Day 0 compared to total cell number at Day 3 (72 hours of growth and/or compound treatment). One hundred percent inhibition of growth is defined as an RLU equivalent to the Day 0 reading. Zero percent inhibition was defined as the RLU signal for the DMSO vehicle control at Day 3 of growth.
Data points are an average of triplicate samples. […] Inhibition and IC50 data analysis was done with GraphPad Prism using a non-linear regression fit with a multiparamater, sigmoidal dose-response (variable slope) equation.
For orientation: ATP-based viability assays read luminescence as a measure of living cells.
Consider `C[C@@H]1CC(c2ccc(NC(=O)c3ncc(C#N)[nH]3)c(C3=CCCCC3)c2)C[C@H](C)N1` (stereo partly drawn) [Example 51a, 5-Cyano-1H-imidazole-2-carboxylic acid [2-cyclohex-1-enyl-4-(cis-2,6-dimethyl-piperidin-4-yl)-phenyl]-amide bis trifluoroacetic acid salt], for which inhibition was half-maximal at 4.72 nM (IC50).
`CN1CCN(c2ccc(NC(=O)c3ccc(C#N)o3)c(C3=CCOCC3)c2)CC1` [Example 12] returned an IC50 above 10000 nM.
Still for that read-out and setting: the figure for `N#Cc1c[nH]c(C(=O)Nc2ccc(C3CCS(=O)(=O)CC3)cc2C2=CCCCC2)n1` [Example 35, 4-Cyano-1H-imidazole-2-carboxylic acid [2-cyclohex-1-enyl-4-(1,1-dioxo-hexahydro-1λ^6-thiopyran-4-yl)-phenyl]-amide] is 192 nM.
Same read-out and setting: the figure for `Cc1ccccc1-c1cc(N2CCN(C)CC2)ccc1NC(=O)c1ccc(C#N)o1` [Example 9, 5-Cyano-furan-2-carboxylic acid [2′-methyl-5-(4-methyl-piperazin-1-yl)-biphenyl-2-yl]-amide] is 1000 nM; for `Cn1ccnc1CN1CCC(c2ccc(NC(=O)c3nc(C#N)c[nH]3)c(C3=CCCC3)c2)CC1` [Example 23, 4-Cyano-1H-imidazole-2-carboxylic acid {2-cyclopent-1-enyl-4-[1-(1-methyl-1 H-imidazol-2-ylmethyl)-piperidin-4-yl]-phenyl}-amide trifluoroacetic acid salt] it is 115 nM.
In the case of `CN1CCN(c2ccc(NC(=O)c3ccc(C#N)o3)c(C3=CCCCC3)c2)CC1` [Example 11, 5-Cyano-furan-2-carboxylic acid [2-cyclohex-1-enyl-4-(4-methyl-piperazin-1-yl)-phenyl]-amide], the midpoint of inhibition, the IC50, lay at 131 nM.
The molecule `N#Cc1c[nH]c(C(=O)Nc2ccc(C3CCNCC3)cc2C2=CCS(=O)(=O)CC2)n1` [Example 36, 4-Cyano-1H-imidazole-2-carboxylic acid [2-(1,1-dioxo-1,2,3,6-tetrahydro-1λ^6-thiopyran-4-yl)-4-piperidin-4-yl-phenyl]-amide trifluoroacetic acid salt] yielded a half-maximal inhibitory concentration (IC50) of 192 nM.
In turn, `Cc1cscc1-c1cc(N2CCN(C)CC2)ccc1NC(=O)c1ccc(C#N)o1` [Example 5, 5-Cyano-furan-2-carboxylic acid [4-(4-methyl-piperazin-1-yl)-2-(4-methyl-thiophen-3-yl)-phenyl]-amide] had a half-maximal inhibitory concentration (IC50) of 666 nM.
The same measure, in the same setting: the figure for `N#Cc1c[nH]c(C(=O)Nc2ccc(C3CCN(CCN4CCOCC4)CC3)cc2C2=CCCCC2)n1` [Example 34, 4-Cyano-1H-imidazole-2-carboxylic acid {2-cyclohex-1-enyl-4-[1-(2-morpholin-4-yl-ethyl)-piperidin-4-yl]-phenyl}-amide di-trifluoroacetic acid salt] is 8 nM.
Still for that read-out and setting: as for `CS(=O)(=O)CCN1CCC(c2ccc(NC(=O)c3nc(C#N)c[nH]3)c(C3=CCCCC3)c2)CC1` [Example 40, 4-Cyano-1H-imidazole-2-carboxylic acid {2-cyclohex-1-enyl-4-[1-(2-methanesulfonyl-ethyl)-piperidin-4-yl]-phenyl}-amide], the figure is 116 nM.

The target of a further test is T1, isolated kinase domain of the human FLT3 receptor (a.a. 571-993) (Homo sapiens, UniProt P36888).
T1 construct: human FLT3 receptor (a.a. 571-993)
T1 sequence (P36888 571-993): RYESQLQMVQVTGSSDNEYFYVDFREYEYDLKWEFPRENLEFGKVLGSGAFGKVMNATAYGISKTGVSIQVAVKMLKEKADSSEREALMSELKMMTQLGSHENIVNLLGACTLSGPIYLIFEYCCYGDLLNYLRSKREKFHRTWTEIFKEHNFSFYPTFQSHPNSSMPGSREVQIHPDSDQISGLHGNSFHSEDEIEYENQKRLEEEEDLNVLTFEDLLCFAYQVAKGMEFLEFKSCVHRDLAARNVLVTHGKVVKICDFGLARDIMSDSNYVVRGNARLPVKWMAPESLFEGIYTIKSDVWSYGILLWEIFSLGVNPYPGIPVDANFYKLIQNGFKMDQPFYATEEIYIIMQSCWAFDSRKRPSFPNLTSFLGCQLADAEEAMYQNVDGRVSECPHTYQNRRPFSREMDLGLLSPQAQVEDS
Kind of test: FLT3 fluorescence polarization kinase assay. The class given is biochemical. Particulars: 10 nM FLT3 571-993, 150 uM ATP; uncertainty ±10%; read-out: Flt-3 Kinase IC50. The source says: The FLT3 FP assay utilizes the fluorescein-labeled phosphopeptide and the anti-phosphotyrosine antibody included in the Panvera Phospho-Tyrosine Kinase Kit (Green) supplied by Invitrogen. When FLT3 phosphorylates polyGlu4Tyr, the fluorescein-labeled phosphopeptide is displaced from the anti-phosphotyrosine antibody by the phosphorylated poly Glu4Tyr, thus decreasing the FP value. […] The kinase reaction is stopped with the addition of EDTA. The fluorescein-labeled phosphopeptide and the anti-phosphotyrosine antibody are added and incubated for 30 minutes at room temperature.
Data points are an average of triplicate samples. Inhibition and IC50 data analysis was done with GraphPad Prism using a non-linear regression fit with a multiparamater, sigmoidal dose-response (variable slope) equation.
In general terms: Fluorescence polarisation rises when a labelled molecule tumbles more slowly, as on binding a larger partner.
Turning to `N#Cc1c[nH]c(C(=O)Nc2ccc(C3CCNCC3)cc2C2=CCCCC2)c1` [Example 13, 4-Cyano-1H-pyrrole-2-carboxylic acid (2-cyclohex-1-enyl-4-piperidin-4-yl-phenyl)-amide trifluoroacetic acid salt], the IC50 was 29 nM.
Regarding `Cc1cscc1-c1cc(N2CCN(C)CC2)ccc1NC(=O)c1ccc(C#N)o1` [Example 5, 5-Cyano-furan-2-carboxylic acid [4-(4-methyl-piperazin-1-yl)-2-(4-methyl-thiophen-3-yl)-phenyl]-amide], the IC50 was found to be 10 nM.
Same read-out and setting: the figure for `CN(C)CC(=O)N1CCC(c2ccc(NC(=O)c3nc(C#N)c[nH]3)c(C3=CCC(C)(C)CC3)n2)CC1` [Example 55, 4-Cyano-1H-imidazole-2-carboxylic acid [1′-(2-dimethylamino-acetyl)-6-(4,4-dimethyl-cyclohex-1-enyl)-1′,2′,3′,4′,5′,6′-hexahydro-[2,4′]bipyridinyl-5-yl]-amide trifluoroacetic acid salt] is 34 nM.
